Experimental data reported in the Kinase Knowledgebase extract (Sharma et al. 2016).

biological target: CDK2 (human) (UniProt P24941); test: Enzyme Assay

IC50, ≤ 1 µM:
Cc1cnc2nc1-c1ccc3ccn(c3c1)CC=CCOCc1cc(ccc1OCCN1CCCC1)N2, ClCCOc1ccc2cc1COCC=CCn1ccc3ccc(cc31)-c1ccnc(n1)N2, CCN(CC)CCNCCOc1ccc2cc1COCC=CCn1ccc3ccc(cc31)-c1ccnc(n1)N2, C1=CCn2ccc3ccc(cc32)-c2ccnc(n2)Nc2cccc(c2)OCC1, CN1CC=CCCn2ccc3ccc(cc32)-c2ccnc(n2)Nc2cccc(c2)C1, C1=CCOCc2cc(ccc2OCCN2CCCC2)Nc2nccc(n2)-c2ccc3c(ccn3CC1)c2, O=C(CCN1CCCCC1)Nc1ccc2cc1OCCC=CCn1ccc3ccc(cc31)-c1ccnc(n1)N2, C1=CCOCc2cc(ccc2OCCN2CCCC2)Nc2nccc(n2)-c2ccc3ccn(c3c2)CC1, C1=CCn2ccc3ccc(cc32)-c2ccnc(n2)Nc2cccc(c2)COC1, CN1CCN(c2ccc3cc2COCC=CCn2ccc4ccc(cc42)-c2ccnc(n2)N3)CC1, O=C(CCN1CCCCC1)Nc1ccc2cc1OCC=CCn1ccc3ccc(cc31)-c1ccnc(n1)N2, C1=CCn2ccc3ccc(cc32)-c2ccnc(n2)Nc2ccc(OCCN3CCCC3)c(c2)COC1, CC(=O)NCCNCCOc1ccc2cc1COCC=CCn1ccc3ccc(cc31)-c1ccnc(n1)N2
